Measurements as given in patent US11691949B2, “Quinoline sulfonamide compounds and their use as antibacterial agents” (OTAGO INNOVATION LIMITED, priority 2017, dated 2023).
Converted amounts (≈) assume the structure as drawn. Counter-ions that a name gives are not always drawn. Like-named read-outs stand apart in the source and are kept apart here.

Key:
Format in all cases: cell-based
S. uberis ATCC 19436 = experiment: MIC by broth microdilution, S. uberis; details: Streptococcus uberis
Method in brief: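 This broth microdilution assay used S. uberis ATCC 19436 in Todd Hewitt Broth, with zinc sulphate heptahydrate added where required to a final 50 μM. Inhibitor concentration ranges came from two-fold serial dilutions in 96-well flat bottom plates at 200 μl. Approximately 5×10^5 cfu/mL cells were incubated for 24 h at 37° C. and 200 rpm. Wells were then read at OD600 on a Varioskan Flash reader.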

S. aureus ATCC 6538 = experiment: MIC by broth microdilution, S. aureus; details: Staphylococcus aureus
Method in brief: (§1)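 Media: TSB or CAMHB for S. aureus, LB or CAMHB for E. coli, with zinc sulphate to 50 μM final where required. Cells at ~5×10^5 cfu/mL met two-fold compound series; growth was scored by OD600 after 24 h shaking at 37° C.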

E. coli ATCC 10596 = experiment: MIC by broth microdilution, E. coli; details: Escherichia coli
Method in brief: as §1

[1] = ATCC19436, No Zinc, read-out: S. uberis ATCC 19436 MIC
[2] = ATCC19436, Zinc (50 μM), read-out: S. uberis ATCC 19436 MIC
[3] = ATCC6538, No Zinc, read-out: S. aureus ATCC 6538 MIC
[4] = ATCC6538, Zinc (50 μM), read-out: S. aureus ATCC 6538 MIC
[5] = ATCC 10536 / ATCC 10596, No Zinc, read-out: E. coli ATCC 10536 MIC
[6] = ATCC 10536 / ATCC 10596, Zinc (50 μM), read-out: E. coli ATCC 10536 MIC
[7] = ATCC19436, read-out: S. uberis ATCC 19436 MIC, No Zinc
[8] = ATCC19436, read-out: S. uberis ATCC 19436 MIC, Zinc (50 μM)
[9] = ATCC6538, read-out: S. aureus ATCC 6538 MIC, No Zinc
[10] = ATCC6538, read-out: S. aureus ATCC 6538 MIC, Zinc (50 μM)
[11] = ATCC 10536 / ATCC 10596, read-out: E. coli ATCC 10536 MIC, No Zinc
[12] = ATCC 10536 / ATCC 10596, read-out: E. coli ATCC 10536 MIC, Zinc (50 μM)

SMILES	MIC (S. uberis ATCC 19436; [1])	MIC (S. uberis ATCC 19436; [2])	MIC (S. aureus ATCC 6538; [3])	MIC (S. aureus ATCC 6538; [4])	MIC (E. coli ATCC 10596; [5])	MIC (E. coli ATCC 10596; [6])	MIC (S. uberis ATCC 19436; [7])	MIC (S. uberis ATCC 19436; [8])	MIC (S. aureus ATCC 6538; [9])	MIC (S. aureus ATCC 6538; [10])	MIC (E. coli ATCC 10596; [11])	MIC (E. coli ATCC 10596; [12])
CN(C)Cc1ccc2cccc(NS(=O)(=O)CC3CC3)c2n1 [ZDR503, 1-Cyclopropyl-N-(2-((dimethylamino)methyl)quinolin-8-yl)methanesulfonamide]	> 256 µg/mL	0.125 µg/mL (≈ 0.391 µM)	> 256 µg/mL	256 µg/mL (≈ 801 µM)	> 256 µg/mL	> 256 µg/mL	–	–	–	–	–	–
CN(C)CCCC(=O)NCc1ccc2cccc(NS(=O)(=O)c3ccc(C(F)(F)F)cc3)c2n1 [ZDR211, 4-(Dimethylamino)-N-((8-((4-(trifluoromethyl)phenyl)sulfonamido)quinolin-2-yl)methyl)butanamide trifluoroacetate]	–	–	–	–	–	–	64 µg/mL	16 µg/mL	128 µg/mL	64 µg/mL	128 µg/mL	128 µg/mL
CN(C)Cc1ccc2cccc(NS(=O)(=O)N3CCCCC3)c2n1 [ZDR193, N-(2-((Dimethylamino)methyl)quinolin-8-yl)piperidine-1-sulfonamide]	128 µg/mL (≈ 367 µM)	0.25 µg/mL (≈ 0.717 µM)	> 256 µg/mL	> 256 µg/mL	> 256 µg/mL	> 256 µg/mL	–	–	–	–	–	–
CN(C)Cc1ccc2cccc(NS(=O)(=O)c3ccccc3OC(F)(F)F)c2n1 [ZDR191, N-(2-((Dimethylamino)methyl)quinolin-8-yl)-2-(trifluoromethoxy)benzenesulfonamide]	256 µg/mL (≈ 602 µM)	0.125 µg/mL (≈ 0.294 µM)	> 256 µg/mL	> 256 µg/mL	> 256 µg/mL	> 256 µg/mL	–	–	–	–	–	–
COC(=O)c1cccc(S(=O)(=O)Nc2cccc3ccc(CN(C)C)nc23)c1 [ZDR308, Methyl 3-(N-(2-((dimethylamino)methyl)quinolin-8-yl)sulfamoyl)benzoate]	256 µg/mL (≈ 641 µM)	0.25 µg/mL (≈ 0.626 µM)	256 µg/mL (≈ 641 µM)	> 256 µg/mL	256 µg/mL (≈ 641 µM)	> 256 µg/mL	–	–	–	–	–	–
CN(C)Cc1ccc2cccc(NS(=O)(=O)c3cccc(Br)c3)c2n1 [ZDR309, 3-Bromo-N-(2-((dimethylamino)methyl)quinolin-8-yl)benzenesulfonamide]	128 µg/mL (≈ 305 µM)	0.125 µg/mL (≈ 0.297 µM)	64 µg/mL (≈ 152 µM)	128 µg/mL (≈ 305 µM)	> 256 µg/mL	> 256 µg/mL	–	–	–	–	–	–
CN(C)Cc1ccc2cccc(NS(=O)(=O)c3ccc(Cl)cc3)c2n1 [ZDR064, 4-Chloro-N-(2-((dimethylamino)methyl)quinolin-8-yl)benzenesulfonamide]	> 256 µg/mL	0.0625 µg/mL (≈ 0.166 µM)	128 µg/mL (≈ 341 µM)	256 µg/mL (≈ 681 µM)	> 256 µg/mL	> 256 µg/mL	–	–	–	–	–	–
Cc1cccc(S(=O)(=O)Nc2cccc3ccc(CN(C)C)nc23)c1 [ZDR315, N-(2-((Dimethylamino)methyl)quinolin-8-yl)-3-methylbenzenesulfonamide]	> 256 µg/mL	0.25 µg/mL (≈ 0.703 µM)	256 µg/mL (≈ 720 µM)	> 256 µg/mL	> 256 µg/mL	> 256 µg/mL	–	–	–	–	–	–
CN(C)Cc1ccc2cccc(NS(=O)(=O)N3CCOCC3)c2n1 [ZDR192, N-(2-((Dimethylamino)methyl)quinolin-8-yl)morpholine-4-sulfonamide]	> 256 µg/mL	1 µg/mL (≈ 2.85 µM)	> 256 µg/mL	> 256 µg/mL	> 256 µg/mL	> 256 µg/mL	–	–	–	–	–	–
O=S(=O)(Nc1cccc2ccc(/C=N/OCc3ccccc3)nc12)c1ccc(C(F)(F)F)cc1 [ZDR137, (E)-N-(2-(((Benzyloxy)imino)methyl)quinolin-8-yl)-4-(trifluoromethyl)benzenesulfonamide]	> 256 µg/mL	0.125 µg/mL (≈ 0.257 µM)	> 256 µg/mL	> 256 µg/mL	> 256 µg/mL	> 256 µg/mL	–	–	–	–	–	–
COC(=O)c1sccc1S(=O)(=O)Nc1cccc2ccc(CN(C)C)nc12 [ZDR319, Methyl 3-(N-(2-((dimethylamino)methyl)quinolin-8-yl)sulfamoyl)thiophene-2-carboxylate]	> 256 µg/mL	1 µg/mL (≈ 2.47 µM)	> 256 µg/mL	> 256 µg/mL	> 256 µg/mL	> 256 µg/mL	–	–	–	–	–	–
NC(=O)N/N=C/c1ccc2cccc(NS(=O)(=O)c3ccc(C(F)(F)F)cc3)c2n1 [ZDR118, (E)-2-((8-((4-(Trifluoromethyl)phenyl)sulfonamido)quinolin-2-yl)methylene)hydrazine-1-carboxamide]	32 µg/mL (≈ 73.2 µM)	2 µg/mL (≈ 4.57 µM)	128 µg/mL (≈ 293 µM)	8 µg/mL (≈ 18.3 µM)	> 256 µg/mL	> 256 µg/mL	–	–	–	–	–	–
COc1ccc(S(=O)(=O)Nc2cccc3ccc(CN(C)C)nc23)cc1 [ZDR063, N-(2-((Dimethylamino)methyl)quinolin-8-yl)-4-methoxybenzenesulfonamide]	> 256 µg/mL	0.25 µg/mL (≈ 0.673 µM)	> 256 µg/mL	> 256 µg/mL	> 256 µg/mL	> 256 µg/mL	–	–	–	–	–	–
O=C(CNCc1ccc2cccc(NS(=O)(=O)c3ccc(C(F)(F)F)cc3)c2n1)NCCCN1CCCCC1 [ZDR262, N-(3-(Piperidin-1-yl)propyl)-2-(((8-((4-(trifluoromethyl)phenyl)sulfonamido)quinolin-2-yl)methyl)amino)acetamide di-trifluoroacetate]	–	–	–	–	–	–	8 µg/mL (≈ 14.2 µM)	16 µg/mL (≈ 28.4 µM)	64 µg/mL (≈ 114 µM)	128 µg/mL (≈ 227 µM)	32 µg/mL (≈ 56.8 µM)	64 µg/mL (≈ 114 µM)
C=CCS(=O)(=O)Nc1cccc2ccc(CN(C)C)nc12 [ZDR259, N-(2-((Dimethylamino)methyl)quinolin-8-yl)prop-2-ene-1-sulfonamide]	> 256 µg/mL	0.25 µg/mL (≈ 0.819 µM)	> 256 µg/mL	256 µg/mL (≈ 838 µM)	> 256 µg/mL	> 256 µg/mL	–	–	–	–	–	–
CN(C)Cc1ccc2cccc(NS(=O)(=O)c3ccc(Br)cc3)c2n1 [ZDR305, 4-Bromo-N-(2-((dimethylamino)methyl)quinolin-8-yl)benzenesulfonamide]	> 256 µg/mL	0.0625 µg/mL (≈ 0.149 µM)	64 µg/mL (≈ 152 µM)	128 µg/mL (≈ 305 µM)	> 256 µg/mL	> 256 µg/mL	–	–	–	–	–	–
O=S(=O)(Nc1cccc2ccc(CNCC(O)CO)nc12)c1ccc(C(F)(F)F)cc1 (stereo not drawn) [ZDR093, N-(2-(((2,3-Dihydroxypropyl)amino)methyl)quinolin-8-yl)-4-(trifluoromethyl)benzenesulfonamide]	64 µg/mL (≈ 141 µM)	16 µg/mL (≈ 35.1 µM)	64 µg/mL (≈ 141 µM)	128 µg/mL (≈ 281 µM)	256 µg/mL (≈ 562 µM)	> 256 µg/mL	–	–	–	–	–	–
O=S(=O)(Nc1cccc2ccc(CNC3CCCCC3)nc12)c1ccc(C(F)(F)F)cc1 [ZDR405, N-(2-((Cyclohexylamino)methyl)quinolin-8-yl)-4-(trifluoromethyl)benzenesulfonamide]	16 µg/mL (≈ 34.5 µM)	0.125 µg/mL (≈ 0.27 µM)	64 µg/mL (≈ 138 µM)	128 µg/mL (≈ 276 µM)	128 µg/mL (≈ 276 µM)	> 256 µg/mL	–	–	–	–	–	–
CN(C)Cc1ccc2cccc(NS(=O)(=O)N3CCCC3)c2n1 [ZDR204, N-(2-((Dimethylamino)methyl)quinolin-8-yl)pyrrolidine-1-sulfonamide]	256 µg/mL (≈ 765 µM)	0.5 µg/mL (≈ 1.5 µM)	> 256 µg/mL	256 µg/mL (≈ 765 µM)	> 256 µg/mL	> 256 µg/mL	–	–	–	–	–	–
O=S(=O)(Nc1cccc2ccc(CN(CCO)CCO)nc12)c1ccc(C(F)(F)F)cc1 [ZDR094, N-(2-((Bis(2-hydroxyethyl)amino)methyl)quinolin-8-yl)-4-(trifluoromethyl)benzenesulfonamide]	32 µg/mL (≈ 68.2 µM)	4 µg/mL (≈ 8.52 µM)	62 µg/mL (≈ 132 µM)	32 µg/mL (≈ 68.2 µM)	256 µg/mL (≈ 545 µM)	256 µg/mL (≈ 545 µM)	–	–	–	–	–	–
O=S(=O)(Nc1cccc2ccc(CN3CCCCC3)nc12)c1ccc(C(F)(F)F)cc1 [ZDR033, N-(2-((Piperidin-1-yl)methyl)quinolin-8-yl)-4-(trifluoromethyl)-benzenesulfonamide]	> 256 µg/mL	0.125 µg/mL (≈ 0.278 µM)	> 256 µg/mL	> 256 µg/mL	> 256 µg/mL	> 256 µg/mL	–	–	–	–	–	–
O=S(=O)(Nc1cccc2ccc(CNCC3CC3)nc12)c1ccc(C(F)(F)F)cc1 [ZDR087, N-(2-(((Cyclopropylmethyl)amino)methyl)quinolin-8-yl)-4-(trifluoromethyl)benzenesulfonamide]	256 µg/mL (≈ 588 µM)	0.25 µg/mL (≈ 0.574 µM)	128 µg/mL (≈ 294 µM)	> 256 µg/mL	256 µg/mL (≈ 588 µM)	> 256 µg/mL	–	–	–	–	–	–
CC(C)(C)OC(=O)N=C(NCc1ccc2cccc(NS(=O)(=O)c3ccc(C(F)(F)F)cc3)c2n1)NC(=O)OC(C)(C)C [ZDR186, N-(2-(N,N′-Bis-Boc-Guanidinomethyl)quinolin-8-yl)-4-(trifluoromethyl)benzenesulfonamide]	> 256 µg/mL	0.25 µg/mL (≈ 0.401 µM)	> 256 µg/mL	> 256 µg/mL	> 256 µg/mL	> 256 µg/mL	–	–	–	–	–	–
O=S(=O)(Nc1cccc2ccc(CNCc3ccncc3)nc12)c1ccc(C(F)(F)F)cc1 [ZDR110, N-(2-(((Pyridin-4-ylmethyl)amino)methyl)quinolin-8-yl)-4-(trifluoromethyl)benzenesulfonamide]	> 256 µg/mL	4 µg/mL (≈ 8.47 µM)	> 256 µg/mL	> 256 µg/mL	> 256 µg/mL	> 256 µg/mL	–	–	–	–	–	–
